Source: US20230293500A1, “AK3287 PREPARATION, AND PREPARATION METHOD THEREFOR AND APPLICATION THEREOF” (SUZHOU ARK BIOPHARMACEUTICAL CO., LTD., priority 2020, published 2023)

Experiment: PK analysis of AK3287 in plasma and skin by LC/MS after application on wound
Assay type: in vivo, Duroc pig
Procedure: According to Table 4, 1 ml of the AK3287 emulsion or vehicle was administered to each of the wounds and smeared evenly on the wounds. The above administration treatment was carried out once daily. The time points for administration were set to start on Day 3 and end on Day 21.
3. Sample and analysis of PK test:
On Day 4, Day 9, Day 15, and Day 21 (i.e., on Day 1, Day 6, Day 12, and Day 18 after the first administration), a piece of circular skin was obtained by surgical incision with a skin biopsy punch (10 mm), after the animal was anesthetized and before the drug was smeared. Blood was sampled from the jugular vein and prepared as plasma. A total of 48 skin samples and 48 plasma samples were collected and subjected to PK analysis by LC/MS method.

exposure in the skin, by dose group (skin, 0.5%, 2% and 8% emulsion groups, FIG. 3): higher in the high-dose group
Structure (SMILES): Cn1cc(-c2cn(-c3ccc(OC(F)(F)F)cc3)c(=O)c3ncn(C)c23)cn1 [AK3287]
amount of AK3287 entering the blood (plasma PK) (plasma, application of emulsion on wound, FIG. 2): a small amount of AK3287 could enter the blood | distribution of AK3287 in skin tissues (skin PK) (skin, application of emulsion on wound, FIG. 3): a majority of AK3287 remained in the skin tissues
